How the values were obtained:
[1] = test system: H520 Non-Small Cell Lung Cancer (NSCLC) Xenograft; experiment: H520 non-small cell lung cancer (NSCLC) xenograft model, tumor volume; format: in vivo, SCID mice
Description: Dosing for all groups began one day post tumor implantation.
In combination groups, FGFR1-ECD.339-Fc and pemetrexed were administered on the same schedule as when given as single agents, and were administered concurrently on days 1, 4, 8, and 11.

[2] = test system: JIMT-1 Breast Cancer Xenograft; experiment: JIMT-1 breast cancer xenograft model, tumor volume; settings: Day 21; FGFR1-ECD.339-Fc 15 mg/kg i.p. 2x/wk; doxorubicin 0.5 mg/kg 1x/wk; paclitaxel 30 mg/kg 2x/wk; each x 5 wks from day 7
Description: Six week old female SCID mice were purchased from Charles River Laboratories (Wilmington, Mass.) and were acclimated for 1 week before the start of the study. […] The cells were cultured for ten passages in DMEM+10% FBS, 1% L-glutamine, and 1% penicillin/streptomycin at 37° C. in a humidified atmosphere with 5% CO2. When the cultured cells reached 85-90% confluence, cells were harvested and resuspended in cold Ca^2+ and Mg^2+ free phosphate buffered saline (PBS) containing 50% Matrigel at 5×10^7 cells per milliliter. The cells were implanted subcutaneously over the right flank of the mice at 5×10^6 cells/100 μl/mouse. One day after tumor implantation, mice were randomized according to body weight at 10 mice per group.
FGFR1-ECD.339-Fc was formulated in 0.9% Saline for Injection USP at 3 mg/ml and administered intraperitoneally (i.p.) at 15 mg/kg (300 μg/100 μl/mouse) twice per week for five weeks beginning on day 7. […] Paclitaxel was administered at 30 mg/kg (60 μg/200 μL per mouse) twice per week for five weeks beginning on day 7.
The tumor volume and body weight of the mice were monitored twice a week throughout the study.
Mice were euthanized on day 42 by isoflurane inhalation and cervical dislocation.

[3] = test system: A549 Non-Small Cell Lung Cancer (NSCLC) Xenograft; experiment: A549 non-small cell lung cancer (NSCLC) xenograft model, tumor volume; format: in vivo, SCID mice
Description: Six weeks old female SCID mice were purchased from Charles River Laboratories (Wilmington, Mass.) and were acclimated for 1 week before the start of the study. […] The cells were implanted subcutaneously over the right flank of the mice at 5×10^6 cells/100 μl/mouse. One day after tumor implantation, mice were randomized according to body weight at 10 mice per group.
The tumor volume and body weight of the mice were monitored twice a week throughout each study.
The tumor volume of each group of mice at the end of each study was analyzed by one-way ANOVA followed by Tukey's test.
Cisplatin was purchased from Sigma-Aldrich (St. Louis, Mo.; Cat. No. P4394), formulated in 0.9% saline, and administered i.p. at 3.5 mg/kg ([…]) once per week for six weeks. Saline was used as negative control and was administered i.p. at 100 μl per mouse twice a week for six weeks.
On day 42, when the average tumor volume in the vehicle group reached 1300 mm^3, the mice were euthanized by isoflurane inhalation and cervical dislocation.
FGFR1-ECD.339-Fc was formulated in 0.9% Saline for Injection USP at 3 mg/ml. […] FGFR1-ECD.339-Fc was administered intraperitoneally (i.p.) at 15 mg/kg twice per week for 5 weeks. Paclitaxel was administered i.p. at 18 mg/kg on days 8, 12, and 15.
When the average tumor volume in vehicle control group reached ˜500 mm^3, the mice were euthanized by isoflurane inhalation and cervical dislocation.
FGFR1-ECD.339-Fc was formulated in 0.9% Saline for Injection USP at 3 mg/ml. 5-FU was purchased from Sigma-Aldrich (St. Louis, Mo.; Cat. No. F6627) and was initially dissolved in dimethyl sulfoxide (DMSO, Sigma-Aldrich, St. Louis, Mo.; Cat. No. D8418-50) at the concentration of 50 mg/ml as a stock solution. The stock solution was further diluted in 0.9% Sodium Chloride Injection USP to 6.6 mg/ml (for 33 mg/kg dosing). FGFR1-ECD.339-Fc was administered intraperitoneally (i.p.) at 15 mg/kg twice per week for four weeks. 5-FU was administered i.p. at 33 mg/kg twice a week for three weeks.
Mice were euthanized on day 31 by isoflurane inhalation and cervical dislocation.
FGFR1-ECD.339-Fc was formulated in PBS at 3 mg/ml and administered intraperitoneally (i.p.) at 15 mg/kg (300 μg/100 μl/mouse) twice a week for four weeks. Docetaxel was administered i.p. at 3 mg/kg or 10 mg/kg twice per week for four weeks.
Mice in the albumin control group were euthanized on day 32 by isoflurane inhalation and cervical dislocation when the average tumor volume in the group reached 1000 mm^3.

[4] = test system: Colo205 Colon Cancer Xenograft; experiment: Colo205 colon cancer xenograft model, tumor volume; format: in vivo, SCID mice
Description: Cells were resuspended in a solution of 50%/v PBS and 50%/v Matrigel at a concentration of 25 million cells/ml. Resuspended cells were kept on ice until implantation. […] On day 0, 2.5 million cells/100 μl were implanted over the right flank of the each mouse using a 27G1/2 needle. One day after tumor implantation, the mice were randomized according to the body weight.
Leucovorin (LV) was also purchased from Sigma-Aldrich (Cat. No. F8259) and was formulated in 0.9% Sodium Chloride Injection USP at 2 mg/ml (for 10 mg/kg dosing), to 4 mg/ml (for 20 mg/kg dosing), and to 6 mg/ml (for 30 mg/kg dosing).
In the first experiment, FGFR1-ECD.339-Fc was combined with three different concentrations of 5-FU/leucovorin. In the second experiment, FGFR1-ECD.339-Fc was combined with either bevacizumab or 5-FU/leucovorin, or both. The double line separates the groups from the two experiments.
When the average tumor volume in a group was near 600 mm^3, the mice in that group were euthanized by isoflurane inhalation and cervical dislocation.
The order of effectiveness of the various treatments was evaluated two ways: 1) the average tumor volume in each group on a single time point (day); and 2) time for the average tumor volume in each group to reach 500 mm^3 (see the dotted line in FIG. 11E).
Leucovorin was also purchased from Sigma-Aldrich (Cat. No. F8259) and was formulated in 0.9% Sodium Chloride Injection USP at 2 mg/ml (for 10 mg/kg dosing).
5-FU and leucovorin were each administered i.p. at 10 mg/kg daily for five days. Oxaliplatin was administered i.p. at 5 mg/kg, 10 mg/kg, or 15 mg/kg in one dose on day 1.
Mice were euthanized on day 28 by isoflurane inhalation and cervical dislocation.

[5] = day 49, FGFR1-ECD.339-Fc alone 15 mg/kg i.p. 2x/wk x 6 wks
[6] = day 42, FGFR1-ECD.339-Fc 20 mg/kg i.p. 2x/wk x 6 wks, cisplatin 3.5 mg/kg i.p. 1x/wk x 6 wks
[7] = day 24, FGFR1-ECD.339-Fc 15 mg/kg i.p. 3x/wk x 4 wks, bevacizumab 1 mg/kg i.p. 2x/wk x 4 wks, 5-Fu/LV 10 mg/kg each i.p. q.d. x 5 days

FGFR1-ECD.339-Fc: human FGFR1 extracellular domain ending at amino acid 339 fused to an Fc; SEQ ID NO: 6 (mature form)
Tumor inhibition over the course of the study (mean tumor volume) ([1]; FIGS. 2A, 3A, 4A, FGFR1-ECD.339-Fc 15 mg/kg, pemetrexed alone at the low or medium dose (62.5 or 125 mg/kg), combination dosed concurrently): resulted in tumor inhibition | Fractional tumor volume (FTV), each treatment alone ([1]; day 49, FGFR1-ECD.339-Fc 15 mg/kg, pemetrexed 62.5 mg/kg): 0.68 | Fractional tumor volume (FTV), each treatment alone ([1]; day 49, FGFR1-ECD.339-Fc 15 mg/kg, pemetrexed 125 mg/kg): 0.68 | Fractional tumor volume (FTV), each treatment alone ([1]; day 49, FGFR1-ECD.339-Fc 15 mg/kg, pemetrexed 250 mg/kg): 0.68 | Mean Tumor volume mm^3(±SD) [1, 5]: 630.4 (±461.5) mm^3 | Tumor growth inhibition (%) [1, 5]: 31% | Fractional tumor volume (FTV), each treatment alone [2]: 0.93 | Fractional tumor volume (FTV), each treatment alone ([3]; day 31, FGFR1-ECD.339-Fc 15 mg/kg i.p. 2x/wk x 4 wks, 5-FU 33 mg/kg i.p. 2x/wk x 3 wks): 0.84 | Fractional tumor volume (FTV), each treatment alone ([3]; day 31, FGFR1-ECD.339-Fc 15 mg/kg i.p. 2x/wk x 5 wks, paclitaxel 18 mg/kg i.p. days 8, 12, 15): 0.84 | Fractional tumor volume (FTV), each treatment alone ([3]; day 32, FGFR1-ECD.339-Fc 15 mg/kg i.p. 2x/wk x 4 wks, docetaxel 3 mg/kg i.p. 2x/wk x 4 wks): 0.54 | Fractional tumor volume (FTV), each treatment alone ([3]; day 32, FGFR1-ECD.339-Fc 15 mg/kg i.p. 2x/wk x 4 wks, docetaxel 10 mg/kg i.p. 2x/wk x 4 wks): 0.54 | Fractional tumor volume (FTV), each treatment alone ([3]; day 38, FGFR1-ECD.339-Fc 15 mg/kg i.p. 2x/wk x 5 wks, paclitaxel 18 mg/kg i.p. days 8, 12, 15): 0.89 | Fractional tumor volume (FTV), each treatment alone ([3]; day 39, FGFR1-ECD.339-Fc 15 mg/kg i.p. 2x/wk (start day 1), vincristine 1 mg/kg i.p. days 8, 15, 22): 0.50 | Mean Tumor volume mm^3(±SD) [3, 6]: 807 (±431) mm^3 | Tumor growth inhibition (%) [3, 6]: 39% | Fractional tumor volume (FTV) relative to control, each treatment alone ([3]; day 42, FGFR1-ECD.339-Fc 20 mg/kg, cisplatin 3.5 mg/kg): 0.60 | Fractional tumor volume (FTV), each treatment alone ([3]; day 46, FGFR1-ECD.339-Fc 15 mg/kg i.p. 2x/wk (start day 1), vincristine 1 mg/kg i.p. days 8, 15, 22): 0.40 | Fractional tumor volume (FTV), each treatment alone ([3]; day 70, FGFR1-ECD.339-Fc 20 mg/kg i.p. 2x/wk (start day 19), vincristine 1.5 mg/kg i.p. days 27, 34, 41): 0.71 | Fractional tumor volume (FTV), each treatment alone ([4]; Day 16, FGFR1-ECD.339-Fc 15 mg/kg i.p. 3x/wk x 4 wks, 5-FU/LV 10 mg/kg each i.p. q.d. x 5 days): 0.76 | Fractional tumor volume (FTV), each treatment alone ([4]; Day 16, FGFR1-ECD.339-Fc 15 mg/kg i.p. 3x/wk x 4 wks, 5-FU/LV 20 mg/kg each i.p. q.d. x 5 days): 0.76 | Fractional tumor volume (FTV), each treatment alone ([4]; Day 16, FGFR1-ECD.339-Fc 15 mg/kg i.p. 3x/wk x 4 wks, 5-FU/LV 30 mg/kg each i.p. q.d. x 5 days): 0.76 | Fractional tumor volume (FTV), each treatment alone ([4]; Day 24, FGFR1-ECD.339-Fc 15 mg/kg i.p. 3x/wk x 4 wks, bevacizumab 1 mg/kg i.p. 2x/wk x 4 wks, 5-Fu/LV 10 mg/kg each q.d. x 5 days): 0.73 | Order of antitumor effect of the treatment groups ([4]; by average tumor volume on a single day and by time for average tumor volume to reach 500 mm^3 (FIG. 11E), value gives the next-ranked group): >vehicle | Fractional tumor volume (FTV), each treatment alone ([4]; day 17, FGFR1-ECD.339-Fc 15 mg/kg i.p. 2x/wk x 4 wks, 5-FU and leucovorin 10 mg/kg each i.p. daily x 5 days, oxaliplatin 5 mg/kg i.p. one dose day 1): 0.77 | Fractional tumor volume (FTV), each treatment alone ([4]; day 17, FGFR1-ECD.339-Fc 15 mg/kg i.p. 2x/wk x 4 wks, 5-FU and leucovorin 10 mg/kg each i.p. daily x 5 days, oxaliplatin 10 mg/kg i.p. one dose day 1): 0.77 | Mean Tumor volume mm^3(±SD) [4, 7]: 509 (±144) mm^3 | Tumor growth inhibition (%) [4, 7]: 26%
